# Measurements as given in patent US8053415B2, “Compounds having RD targeting motifs” (Washington University in St. Louis, priority 2005, dated 2011).
# Where a SMILES comes first, the peptide text is derived from it.
# Key:
# A549 cells [1] = experiment: Cell uptake, internalization and blocking of cypate-peptide conjugates (Example 3); type: cell-based, human
# Method: The ABI-positive cells were incubated with cypate or cypate-peptide conjugates at 37° C. for different time points. A549 cells were grown as detailed above. The human glioblastoma cell line, U87, and the human embryonic kidney cell line, HEK, were purchased from ATTC. U87 and HEK cells were maintained in minimum essential medium (MEM) with 2 mM L-glutamine and Earle's BSS adjusted to contain 1.5 g/L sodium bicarbonate, 0.1 mM nonessential amino acids, and 1.0 mM sodium pyruvate, with 10% fetal calf serum, 100 units/mL penicillin, and 100 units/mL streptomycin. Cells were grown on Lab-Tek slides. The medium was replaced and cells were incubated for various times up to 4 h at 37° C. in the presence of 1 μM of the dye conjugated peptides. For fluorescence microscopy, cells were visualized with an Olympus BX61W1 microscope using 775/50 excitation, 845/55 emission. For subcellular localization studies, 25 nM mitotracker green or 50 nM lysotracker red from Molecular Probes (Eugene, Oreg.) was added during the last 15 min or 60 min of incubation, respectively. […] Relative fluorescence was determined for five different areas of each experimental condition using the Slidebook software, and the results were averaged. The average relative fluorescence for each condition was normalized to cells treated with Cyp-GRD peptide.
# A549 tumor = experiment: In vivo fluorescence optical imaging and ex vivo organ distribution in A549 tumor-bearing nude mice; details: for blocking of Cyp-GRD uptake in the tumor by co-injection: equimolar, 0.3 μmol/kg body weight
# Method: All in vivo studies were performed in compliance with the Washington University in St Louis Animal Study Committee's requirements for the care and use of laboratory animals in research. Nude mice (18-22 g) were anesthetized with xylazine/ketamine cocktail via intraperitoneal injection and placed in a supine position. The mice were injected subcutaneously with A549 cells (1×10^6) in the lower back of the mice. Tumor masses were palpable at 5-7 days post implant, which reached 5 mm in 10-15 days. Prior to injection of the probe, the mice were anesthetized as described above. A 29-gauge needle was used to inject the probes into the mouse via the lateral tail vein. The molecular probe (100 μL) was injected via the lateral tail vein at 0.3 μmol per kg of body weight. […] [SEQ ID NO:1] were constituted in a vial, and doses of 0.3 μmol per kg of body weight were injected into the A549 tumor-bearing mice.
# A non-invasive in vivo continuous wave fluorescence imaging apparatus was used to visualize the distribution and preferential tissue uptake of the cypate-peptide molecular beacons in the nude mice (Achilefu (2004) Technol. Cancer Res. Treat. 3:393-409, incorporated herein by reference). Light from two laser diodes of nominal wavelength 780 nm and nominal power of 50 mW was launched into a fiber optic bundle. Two laser diodes were used to produce as much uniform illumination of the whole animal or organ parts as possible. The nominal 50 mW of incident power was reduced to about 44 mW at the output of the fiber optic bundle. A de-focusing lens in position after the bundle expanded the beam such that nearly the whole animal was illuminated. A Photometrics CCD camera (16 bit, 1024×1024 pixel, back illuminated, thermoelectric Peltier cooled with forced air) was used to capture the emitted photons. An interference filter (830 nm) was mounted in front of the CCD camera input lens such that only emitted fluorescent light from the contrast agent was imaged. Real-time acquisition, display and data processing software (WinView/32) was used to obtain the optical image. The samples were dissolved in 20% aqueous DMSO and animals were injected with doses of 0.3 μmol/kg body weight via the lateral tail vein. Injected volumes were 100 μL for each mouse. Data analysis consisted of subtracting (pixel by pixel) the pre-injection image from the post injection images, and displaying the false color results. Integration of the relative fluorescence intensities of tumor vs. surrounding tissues indicated the extent of selective uptake of the contrast agent. At the completion of the study, the mice were euthanized and some organ parts were excised and rinsed with water. The tissues were placed under the CCD camera and the fluorescence emission from each organ was measured after excitation with the 780 nm laser sources. Tissue parts, instead of whole organs, were used to minimize problems associated with depth-dependent non-linear fluorescence emission. A statistical program in the WinView package was used to estimate the mean fluorescence intensity per organ part.
# In vivo optical imaging studies using the cypate-peptide optical probes were performed and analyzed as described above in Example 1. […]
# A549 cells [2] = experiment: CyQuant cytotoxicity and proliferation assay; type: cell-based, human; details: 48 hours
# Method: Cells were seeded at 2.5×10^4 cells/well and grown in 96 well plates in the presence of 0−1.5×10^−5 M cypate conjugated peptides for 24 or 48 hours. Cell proliferation was measured using the CyQuant proliferation assay from Molecular Probes (Eugene, Oreg.) per the manufacturer's protocol. Briefly, after incubation the microplate was inverted to remove the media and frozen at −70° C. overnight. The microplate was thawed at room temperature and 200 μL of the CyQuant GR dye/cell-lysis buffer was added to each well. […]
# Because the Cyquant assay is based on the adherence of a dye to nucleic acids, the assay is a measure of both proliferative and cytotoxic effects.
# [3] = Absorption and emission spectral properties in 20% aqueous DMSO; type: physicochemical
# Method: The spectral properties of cypate and the cypate-peptide conjugates were determined in 20% aqueous DMSO, which solubilizes all the compounds. […] Absorbance measurements were performed with a Beckman Coulter DU 640 spectrophotometer. The fluorescence spectra were recorded on Fluorolog-3 fluorometer (HORIBA Jobin Yvon Inc., Edison, N.J.). To prepare the stock solutions, a high precision analytical balance was used to weigh >2 mg of each compound, which was dissolved in DMSO. The DMSO solutions were then diluted with water to obtain a final solution of 20% aqueous DMSO. An aliquot (known volume) of the solution was transferred to a cuvette with 1 μL precision micropipettes and diluted with 20% aqueous DMSO solvent mixture to give a working solution that absorbs at <1.0 absorbance unit. Aliquots of the working solution were diluted with 20% aqueous DMSO and used to determine the molar absorptivity of each compound. For fluorescence measurements, probe solutions with 0.1 absorbance units were used to minimize inner filter effects.
# Previous studies have shown that this solvent mixture boosts fluorescence intensity and is well tolerated by rodents. Additionally, the dyes and their peptide conjugates are soluble in this solvent mixture, providing a common medium for spectral measurements.
# Absorbance spectra were measured on a Beckman Coulter DU 640 UV-Visible spectrophotometer. Fluorescence spectra were recorded on a HORIBA Jobin Yvon Fluorolog-3 fluorometer. Stock solutions (1.0 mM) of the conjugates were prepared by dissolving each sample in 80% aqueous DMSO. UV-Vis and fluorescence measurements were carried out by adding 5.0 μL of the stock solutions via a micropipette into 3 mL of 20% aqueous DMSO in a quartz cuvette.
# [4] = target: T1, purified human αvβ3 integrin protein (Homo sapiens, UniProt P05106+P06756); experiment: Competitive αvβ3 integrin receptor binding assay with 125I-echistatin tracer (Example 2); details: Table 3, read-out: IC50
# T1 construct: purchased Chemicon International, Inc. (Temecula, Calif.)
# Method: The binding affinities were measured based on the competitive binding between purified αvβ3 integrin (ABI) and peptide ligands. Echistatin is a polypeptide that binds irreversibly with high affinity and specificity to ABI. ^125I-echistatin was used as a tracer in ABI binding assays.
# Receptor binding assays were performed by using purified human αvβ3 integrin protein from Chemicon International, Inc. (Temecula, Calif.). Assays were carried out using the Millipore Duropore membrane 96-well plates and the Millipore MultiScreen system (Bedford, Mass.). The 96-well membrane plate was blocked with 0.1% Polythylenimine blocking solution overnight at 4° C. ^125I-echistatin (50 nmol/L) was added to the binding buffer (50 mM Tris-HCl, pH 7.4, 100 mM NaCl, 2 mM CaCl2, 1 mM MgCl2, 1 mM MnCl2, 1% BSA) containing integrin protein (50 ng per well in 96-well membrane plate) and ligands in a total volume of 200 μL per well. The concentration range of ligand was between 0.01 μM and 100 μM. The mixtures were incubated for 2 h at room temperature, the ABI was then filtered by centrifugation at 1500 g and washed three times with 0.20 mL of ice-cold binding buffer. The filters containing radioactivity bound ABI were removed using a punch apparatus and counted using a Packard Cobra II Auto-gamma counter (Meriden, Conn.). […] Radiolabeling of ^125I-echistatin (Amersham Biosciences, Piscataway, N.J.) was carried out in a mixture of 0.25% BSA, 5.0% lactose, 0.21% citric acid and aprotinin (0.9 TIU/ml).
# A549 and A427 cells = experiment: Cellular internalization of cyclic cypate-RGD conjugates (Example 2); type: cell-based; details: 1 μM, 1 h, 37° C.
# Method: A549 and A427 cells were purchased from ATCC and grown in […] tissue culture flasks or on Lab-Tek chambered slides in Ham's F12K medium with 2 mM L-glutamine supplemented with 1.5 g/L sodium bicarbonate, 10% fetal calf serum, 100 units/ml penicillin and 100 units/mL streptomycin.
# Cells were grown to confluence on LabTek microscope slides. After washing with PBS, the cells were incubated with 1 μM of the target compounds for 1 h at 37° C. The medium was removed and the cells washed with PBS. The slides were mounted with anti-fading mounting medium. Cells were visualized with an Olympus microscope system (FV 1000) using 755 excitation and 845 nm emission filters.
smiles,measurement,setting,value
"CC(C)[C@@H]1NC(=O)[C@@H](Cc2ccccc2)NC(=O)[C@H](CC(=O)O)NC(=O)CNC(=O)[C@H](CCCNC(=N)N)NC1=O [cyclo[RGDfV], reference compound]",blocking of cypate-GRD uptake / internalization in A549 cells,"A549 cells [1]; pretreatment 15 min at 37° C., antibodies 10 μg/ml",blocked the uptake
same,displacement of cypate-GRD from A549 tumor,A549 tumor; blocking peptide given 24 h postinjection of cypate-GRD,unable to displace
same,blocking of Cyp-GRD uptake in the tumor by co-injection,A549 tumor; 24 h post injection,blocked the uptake
same,blocking of Cyp-GRD uptake in the tumor by co-injection,"A549 tumor; 24 h post injection, listed as cyclo(RGDfV)",significantly blocked
"CC1(C)C(/C=C/C=C/C=C/C=C2/N(CCC(=O)NCC(=O)N[C@@H](CCCNC(=N)N)C(=O)NCC(=O)N[C@@H](CC(=O)O)C(=O)N[C@@H](CO)C(=O)N3CCC[C@H]3C(=O)N[C@@H](CCCCN)C(=O)O)c3ccc4ccccc4c3C2(C)C)=[N+](CCC(=O)O)c2ccc3ccccc3c21 [Cyp-RGD, Cypate-GRGDSPK]",internalization / fluorescence intensity in cells,"A549 cells [1]; 1 μM, 4 h, 37° C.",higher intensity than the linear GRD compound
same,"cytotoxicity (CyQuant), longer treatment",A549 cells [2],some cytotoxicity
same,^abεmax,[3],"213,726 cm^−1Mol^−1"
same,^abλmax,[3],789 nm
same,^emλmax,[3],811 nm
same,uptake / retention in A549 tumor,"A549 tumor; 0.3 μmol per kg via lateral tail vein, fluorescence imaging",preferentially localized
same,accumulation / retention in nontarget tissues,A549 tumor; 24 h post injection,primarily retained in the liver and the kidneys
same,tumor uptake compared among the cypate-peptide conjugates,A549 tumor; 24 h post injection,low
same,IC50,[4],328 nM
"CC(C)C[C@@H]1NC(=O)[C@H](CC(=O)O)NC(=O)CNC(=O)[C@H](CCCNC(=N)N)NC(=O)[C@@H](NC(=O)CCN2C(=CC=CC=CC=CC3=[N+](CCC(=O)O)c4ccc5ccccc5c4C3(C)C)C(C)(C)c3c2ccc2ccccc32)CSSC[C@@H](C(N)=O)NC1=O [Cypate-cyclo(CRGDLC)-NH2] (HELM PEPTIDE1{[CC1(C)C(/C=C/C=C/C=C/C=C2/N(CCC(=O)[*:2])c3ccc4ccccc4c3C2(C)C)=[N+](CCC(=O)O)c2ccc3ccccc3c21].C.R.G.D.L.C.[am]}$PEPTIDE1,PEPTIDE1,2:R3-7:R3$$$V2.0)",cellular internalization,A549 and A427 cells,internalized by the cells much better than some of the other compounds
